Where two headings read alike, the source gives them in different places.
How the values were obtained:
Mycobacterium bovis BCG = type: cell-based; conditions: for difference from control (untreated infected cells) in mROS and BCG survival: THP1 cells or hMDM infected with BCG, 2 mM MET, 10 mM NAC or GSH, 24 hrs; for effect of ROS scavenger on Metformin-induced inhibition of growth of intracellular BCG: infected THP1 cells, 2 mM Metformin, 10 mM scavenger
[1] = tested on: H37Rv strain of Mycobacterium tuberculosis (MTB); type: cell-based
[2] = tested on: reactive oxygen species (ROS); type: cell-based, human
mycobacterial phagosomes = type: cell-based, human
[3] = tested on: Mycobacterium tuberculosis (MTB); assay: Acute infection model of MTB in C57BL/6 mice, lung and spleen bacillary load (CFU); type: in vivo
[4] = mice; cited from earlier work
BCG = assay: microbe, parasite or virus in culture; type: cell-based, Mycobacterium bovis BCG; conditions: for IC50: Mycobacterium tuberculosis variant bovis BCG, BCG, read-out: IC50 in MIC assay
[5] = 50 mg/Kg oral, 2-4 weeks of treatment

For N[C@@H](CCC(=O)N[C@@H](CS)C(=O)NCC(=O)O)C(=O)O [GSH, glutathione], the “difference from control (untreated infected cells) in mROS and BCG survival” value (Mycobacterium bovis BCG) was “not significant”, the “effect of ROS scavenger on Metformin-induced inhibition of growth of intracellular BCG” value (Mycobacterium bovis BCG) was “abolishment” and the “difference from control in MTB survival (CFU)” value [1] was “not significant”.

In the case of CN(C)C(=N)NC(=N)N.Cl [Metformin, N,N-dimethyl imidodicarbonimidic diamide hydrochloride], the “time in which inhibition of mycobacterial growth occurred” value (Mycobacterium bovis BCG; BCG-infected THP1 cells, 2 mM, no further reduction at later time points) is reported as no more than 24 h, the “dose dependence of inhibition of intracellular mycobacteria” value (Mycobacterium bovis BCG; BCG-infected THP1 cells, CFU at 24 hrs) is reported as “dose-dependent inhibition” and the “mROS, time- and dose-dependent change” value [2] is reported as “increased significantly”. For the same compound, the “production of cytoplasmic ROS (cROS), CM-H2DCFDA” value [2] was “but not of cytoplasmic ROS (cROS)”, the “production of mitochondrial ROS (mROS), MitoSox” value [2] was “increased” and the “dose dependence of inhibition of intracellular MTB” value [1] was “dose-dependent inhibition”.

For CC(=O)N[C@@H](CS)C(=O)O [NAC, N-acetylcysteine], the “difference from control (untreated infected cells) in mROS and BCG survival” value (Mycobacterium bovis BCG) was “not significant”, the “effect of ROS scavenger on Metformin-induced inhibition of growth of intracellular BCG” value (Mycobacterium bovis BCG) was “abolishment” and the “effect on Metformin-induced phagosomal acidification” value (mycobacterial phagosomes) was “prevented”. The “difference from control in MTB survival (CFU)” value ([1]; […], 2 mM MET, 10 mM NAC or GSH, 24 hrs) was “not significant”.

In the case of Oc1ccc(/C=C/c2cc(O)cc(O)c2)cc1 [Resveratrol, 3,5,4′-trihydroxy-trans-stilbene], the “bacilli load in the lung compared to controls” value ([3]; 25 mg/Kg RES alone, oral) is reported as “did not reduce”, the “CFU in the lung compared to control” value [3, 5] is reported as “less CFU” and the “CFU in the spleen compared to control” value [3, 5] is reported as “less CFU”. For the same compound, the “Oral LD50” value [4] was roughly 2000 mg/kg.

With CCCCc1oc2ccccc2c1C(=O)c1cc(I)c(OCCN(CC)CC)c(I)c1 [amiodarone, (2-{4-[(2-butyl-1-benzofuran-3-yl)carbonyl]-2,6-diiodophenoxy}ethyl)diethylamine] the “direct anti-mycobacterial activity in MIC assay” value (BCG; in vitro BCG growth) was “showed inhibition of mycobacterial growth”.

Work on CO[C@H]1C[C@@H]2CC[C@@H](C)[C@@](O)(O2)C(=O)C(=O)N2CCCC[C@H]2C(=O)O[C@H]([C@H](C)C[C@@H]2CC[C@@H](O)[C@H](OC)C2)CC(=O)[C@H](C)/C=C(\C)[C@@H](O)[C@@H](OC)C(=O)[C@H](C)C[C@H](C)/C=C/C=C/C=C/1C [rapamycin] yielded an IC50 (BCG) of roughly 13.8 µM.

In the case of C=C(C)[C@H]1Cc2c(ccc3c2O[C@@H]2COc4cc(OC)c(OC)cc4[C@@H]2C3=O)O1 [rotenone], the “production of cytoplasmic ROS (cROS), CM-H2DCFDA” value [2] is reported as “upregulated” and the “production of mitochondrial ROS (mROS), MitoSox” value [2] is reported as “upregulated”.

CNC1C(OC2C(OC3C(O)C(O)C(NC(=N)N)C(O)C3NC(=N)N)OC(C)C2(O)C=O)OC(CO)C(O)C1O (stereo not shown) [streptomycin, 5-(2,4-diguanidino-3,5,6-trihydroxy-cyclohexoxy)-4-[4,5-dihydroxy-6-(hydroxymethyl)-3-methylamino-tetrahydropyran-2-yl]oxy-3-hydroxy-2-methyl-tetrahydrofuran-3-carbaldehyde] gave an IC50 (BCG) of roughly 0.2 µM.

Source: patent US9539222B2, “Methods to inhibit intracellular growth of bacteria and to treat bacteria-mediated diseases” (priority 2012, dated 2017)
